Source: ChEMBL document CHEMBL1201862, “PubChem BioAssay data set” (2004)
The source made the active and inactive calls. Cut-off read from the data, not from the text of the source: actives have a measured IC50 and inactives only a lower limit.

Molecular target: Envelope glycoprotein gp160 (Human immunodeficiency virus 1, UniProt Q6QLK5)
Experiment: inhibitors of HIV fusion peptide binding, primary screen, biochemical, uHTS, fluorescence dequenching (AID 1986)

Sequence of Envelope glycoprotein gp160 (Q6QLK5 whole entry, the tested form may be a part): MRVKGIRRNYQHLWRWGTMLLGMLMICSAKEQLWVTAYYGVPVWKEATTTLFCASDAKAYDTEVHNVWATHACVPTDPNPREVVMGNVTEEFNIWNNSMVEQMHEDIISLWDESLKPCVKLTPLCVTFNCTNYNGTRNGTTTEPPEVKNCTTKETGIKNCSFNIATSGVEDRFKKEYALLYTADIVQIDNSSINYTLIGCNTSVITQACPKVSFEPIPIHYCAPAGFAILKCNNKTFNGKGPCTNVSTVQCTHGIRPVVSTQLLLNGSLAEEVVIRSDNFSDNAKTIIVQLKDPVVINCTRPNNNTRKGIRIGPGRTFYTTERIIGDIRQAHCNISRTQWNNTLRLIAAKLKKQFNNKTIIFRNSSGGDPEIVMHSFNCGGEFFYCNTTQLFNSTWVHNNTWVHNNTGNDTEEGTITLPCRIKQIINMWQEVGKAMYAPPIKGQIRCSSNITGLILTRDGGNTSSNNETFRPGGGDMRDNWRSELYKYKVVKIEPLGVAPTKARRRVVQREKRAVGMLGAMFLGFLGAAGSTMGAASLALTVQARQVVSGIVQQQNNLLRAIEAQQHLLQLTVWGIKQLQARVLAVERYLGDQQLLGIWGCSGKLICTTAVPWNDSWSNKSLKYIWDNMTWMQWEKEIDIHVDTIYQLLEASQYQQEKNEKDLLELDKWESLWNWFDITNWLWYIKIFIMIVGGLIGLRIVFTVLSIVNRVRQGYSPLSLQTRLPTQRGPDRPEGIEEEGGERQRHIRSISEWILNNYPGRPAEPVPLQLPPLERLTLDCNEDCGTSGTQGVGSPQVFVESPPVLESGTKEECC

Row | Structure (SMILES) | IC50
1 | O=C(N/N=C/c1cc(Cl)cc([N+](=O)[O-])c1O)c1ccccc1NS(=O)(=O)c1cccs1 | 13.6 µM (active)
2 | COc1cc(OC)c2c(O)c3c(c(-c4c5c(c(O)c6c(OC)cc(OC)cc46)CO[C@@H](C)[C@H]5O)c2c1)[C@H](O)[C@H](C)OC3 | 10.1 µM (active)
